{"source": "patent US6545041B2", "about": "“Tumor necrosis factor alpha (TNF-α) inhibiting pharmaceuticals” (Yessum Research Development Co. of the Hebrew University of …, priority 1995, dated 2003)", "key": {"LPS treated rats": {"tested_on": "LPS treated rats", "experiment": "LPS-induced hypotension and hematocrit in rats", "format": "in vivo, Sprague Dawley rats", "experimental": "A prominent manifestation of endotoxemia is hypotension, and the effect of a drug on mean arterial blood pressure (MABP) indicates its potency as an anti-endotoxic shock agent. The protective effect of a test compound is evaluated in rats treated with LPS, in which the blood pressure and other vital signs are monitored up to 4 hrs after induction of endotoxemia.\nRats were individually anesthetized with halothane in 70% nitrogen, 30% oxygen. The right femoral artery was catheterized using polyethylene tubes (PE-50, Clay Adams, USA), and connected to a computerized physiograph through a pressure transducer (XTT Vigo, USA). The animals are then connected via a rectal probe to the above physiological recorder. Rectal temperature is kept throughout the study between 37° C. and 38° C., using a heating lamp. Following 10-15 minutes of baseline recording, animals are intravenously administered an injection of saline, vehicle alone or HU-211 at a dose of 4 mg/kg. As soon as possible after completion of the first injection (2-5 minutes later) they are administered an intravenous injection of LPS at a dose of 15 mg/kg (in a volume of 3 ml/kg). Blood pressure and heart rate are recorded for the following 4 hrs. The hematocrit is measured and recorded just prior to drug administration, and 1, 2, and 3 hours later. At the end of the follow up period, animals are sacrificed by deep anesthesia with halothane."}, "[1]": {"tested_on": "D-galactosamine (D-GALN)-sensitized mice", "experiment": "Lethal toxicity by LPS in D-galactosamine-sensitized mice (endotoxic shock)", "format": "in vivo, mice (C57BL/6)", "details": "for lethality in HU-211 treated group dead/total: LPS 10 ng/mouse + D-GALN, HU-211 7.5 mg/kg plus 8 hourly injections, 24 hrs, exp. no 1-3 and total, controls 20/20, 7.5 mg/kg", "experimental": "The effect of HU-211 in endotoxic shock was assessed in a model of lethal toxicity by lipopolysacharide (LPS) in D-galactosamine (D-GALN)-sensitized mice (Galanos et al. PNAS 76: 5739, 1979, Lehman et al. J. Exp. Med. 165: 657, 1987). In this model 100% mortality occurs within 6-8 hrs of administration of the combined treatment.\nLPS (10 ng/mouse) and D-GALN ([…]) were coadministered to 20 mice (C57BL/6). Half of the mice served as controls, and the other were treated within 5 min of injection with HU-211 (7.5 mg/kg body weight), followed by 8 additional injections every hour. The survival was followed up to 24 hrs, and the results of this experiment are depicted in Table 1."}, "[2]": {"tested_on": "collagen induced arthritis", "experiment": "Collagen type 2 induced arthritis", "format": "in vivo, CD-1 male mice", "details": "HU-211 20 mg/kg i.p. daily or every 3 days; p<0.01", "experimental": "CD-1 male mice (27-33 gr.), five in each treatment group (supplied by Harlan Israel) were used in the present study. Each animal was administered with collagen type 2 (Sigma, batch no. 111H7180) 100 μg/ml in 0.1 ml complete Freund's adjuvant (Sigma batch no. 084H8800). The collagen was administered s.c. into the base of the tail. The volume of each hind paw was measured using a plathysmometer (Hugo Basill, Italy) before collagen administration and on days 1, 4, 7, 10, 13 and 16 of treatment (30 minutes after drug treatment).\nFive treatment groups were tested in the present study: vehicle (blank cosolvent) 10 ml/kg once daily, HU-211 10 mg/kg every three days, HU-211 20 mg/kg once daily, HU-211 20 mg/kg every 3 days and diclofenac 10 mg/kg (10 ml/kg) every 3 days. All treatments were administered intraperitoneally. HU-211 was used from a 5% preparation in cosolvent (Pharmos batch no. PRN-C-08623041), by diluting with saline (B. Braun batch no. 3431A41A) 1:25. The same procedure was performed with blank cosolvent (Pharmos batch no. 608945). Diclofenac was prepared in Pharmos, batch no. LG-121\\70 1 mg/ml. At the same time paws were measured they were clinically evaluated according to the following method (Williams R. O., Proc. Natl. Acad. Sci. USA: 89:9784-9788): 0—normal, 1—slight swelling and erythema, 2—pronounced edematous swelling and 3—joint rigidity. […]"}, "[3]": {"details": "doses far exceeding those contemplated for repression of cytokines; cited from earlier work"}, "[4]": {"experiment": "Passage of the blood-brain barrier", "from_the_text": "This makes the development of formulations suitable for intravenous administration of HU-211 difficult, hampering its clinical application. Water-soluble derivatives of HU-211 designed to readily release the drug by hydrolysis following i.v. administration might overcome this problem and will be used as prodrugs."}}, "note": "Where “and” joins values, the source holds several entries; their conditions need not be identical. Identical values can stand only once.", "data": [{"smiles": "CCCCCCC(C)(C)c1cc(O)c2c(c1)OC(C)(C)[C@H]1CC=C(CO)C[C@H]21", "note": "[HU-211, (+)-(3S,4S)-1,1-dimethylheptyl homologue of 7-hydroxy-Δ^6-tetrahydrocannabinol]", "values": [{"measurement": "time post-LPS at which normotension was regained", "setting": "LPS treated rats; HU-211 treated rats", "value": "≤ 30", "unit": "min"}, {"measurement": "duration of transient hypotension", "setting": "LPS treated rats; HU-211 treated rats, evident 10 minutes after LPS", "value": "5 to 10", "unit": "min"}, {"measurement": "LPS-induced increase in hematocrit", "setting": "LPS treated rats; rats, HU-211 iv 2-3 minutes before LPS, LPS alone about 10% increase", "value": "prevented"}, {"measurement": "LPS-induced drop in mean arterial blood pressure (MABP)", "setting": "LPS treated rats; rats, LPS 15 mg/kg iv, HU-211 4 mg/kg iv pre-administration, LPS alone around 30% reduction", "value": "abolished"}, {"measurement": "lethality in HU-211 treated group dead/total", "setting": "[1]", "value": "1/5 and 1/10 and 0/5"}, {"measurement": "lethality in HU-211 treated group dead/total", "setting": "[1]; pooled total of all experiments", "value": "2/20"}, {"measurement": "survival", "setting": "[1]; LPS + D-GALN mice, HU-211 7.5 mg/kg, total of experiments, controls 0%", "value": 90, "unit": "%"}, {"measurement": "clinical signs of arthritis (swelling of the paws)", "setting": "[2]", "value": "lowest number of these signs"}, {"measurement": "stereotypy and locomotor hyperactivity", "setting": "[3]", "value": "induction of stereotypy and locomotor hyperactivity"}, {"measurement": "passage of the blood-brain barrier", "setting": "[4]", "value": "readily passes the blood-brain barrier"}]}]}
